# Results reported in article PMC9332833 (Cancers, 2022).
# Experiments:
# [1] = system: K562-MDR1 cells; test: Annexin V-FITC/PI apoptosis measurement, K562-MDR1; type: cell-based, human; conditions: 5 µM, 24 h
# Protocol: Cells were seeded in 6-well plates (K562 or K562-MDR1) or in 24-well plates (CD34^+ cells). After 24 h, BK124.1 or DMSO was added. After a further 24 h, cells were stained using the Annexin V-FITC kit for the detection of apoptosis (BD, Franklin Lakes, NJ, USA) and immediately analyzed on a BD FACSCalibur using CellQuest software (BD, Franklin Lakes, NJ, USA). […]
# incubated overnight at 37 °C and analyzed using an iMark Microp late absorbance reader (Bio-Rad, Hercules, CA, USA). Results were calculated relative to control cells treated with DMSO only.
# […] CD34+ cells were plated at a concentration of 2.5 × 10^5 cells/mL in a 24-well plate. […] A f t e r a further 24 hours, cells were harvested and stained according to the manufacturer's protocol using the Annexin V-FITC kit for the detection of apoptosis (BD, Franklin Lakes, NJ, USA). Stained cells were immediately analyzed on a BD FACSCalibur using CellQuest softwa re (BD, Franklin Lakes, NJ, USA).
# Cells were seeded at a concentration of 1-2 × 10^5 cells/mL in a 6-well plate. After 24 hours of pre-incubation, BK124.1 in DMSO was added to the cells (vDMSO/vmedium), and incubated for 24 or 48 hours.
# After incubation, cells were washed twice with ice-cold PBS (Mg2+ and Ca2+-free), resuspended in ice-cold 70% ethanol, and placed at -20 °C for 24 hours. […]
# Flow cytometry analysis of CD243 (P-glycoprotein) […]
# [2] = system: CD34+/CD38+ cells from CML patients; test: Annexin V-FITC/PI apoptosis in CD34+/CD38+ subpopulation; type: cell-based, human; conditions: 2.5 or 5 µM, 24 h
# Protocol: Pre-cultured cells were treated with BK124.1 or DMSO for 24 h. For purity analysis, cells were stained with anti-human CD34-APC antibody, anti-human CD38-PE (Biolegend, San Diego, CA, USA), and propidium iodide according to the manufacturers’ protocols. For apoptosis analysis, cells were additionally stained with Annexin V-FITC kit (BD, Franklin Lakes, NJ, USA) according to the manufacturer’s protocol. Appropriate isotype controls were included. Stained cells were immediately analyzed on a BD LSRFortessa flow cytometer with FlowJo software (BD, Franklin Lakes, NJ, USA), after exclusion of doublets. Purity was analyzed on live cells only, and apoptosis separately for each population of cells (CD34^+/CD38^+ or CD34^+/CD38^−).
# […] Next, we isolated CD34+ cells (EasySep™ Human CD34 Positive Selection Kit II, StemCell Technologies, Vancouver, Canada), counted them and assessed viability with Muse Cell Analyzer (Merck Millipore, Burlington, MA, USA). […] The purity of the live CD34+ fraction was assessed by flow cytometry with anti-human CD34-APC antibody, compared with an appropriate isotype control (Biolegend, San Diego, CA, USA), and propidium iodide (Sigma-Aldrich, St. Louis, MO, USA). […]
# […] In both cases stained cells were immediately analyzed on a BD LSRFortessa flow cytometer and analyzed with FlowJo software (BD, Franklin Lakes, NJ, USA). […]
# [3] = Toxicity in Balb/c nude mice; type: in vivo
# Protocol: […] The compound blood concentration was measured 15 min, 6, 12, and 24 h post-injection. For each time point, 4 mice were sacrificed. BK124.1 concentration in the bloodstream was analyzed using mass spectrometry. Toxicology was assessed by examining physiological and morphological changes at the injection site, the appearance of internal organs (liver, heart, kidneys, and spleen), blood tests, body mass, and animal behavior.
compound,measurement,setting,value
"CCC12C(=O)C(CC)(C(c3ccccc3)=C1c1ccccc1)C1C(=O)N(CC(O)CNC(C)C)C(=O)C12 (stereo not shown) [BK124.1, 4-[2-hydroxy-3-(propan-2-ylamino)propyl]-1,7-diethyl-8,9-diphenyl-4-azatricyclo [5.2.1.02,6]dec-8-ene-3,5,10-trione]",Apoptosis,[1],30.1%
same,Apoptosis in CD34+/CD38+ cells compared with CD34+/CD38- cells,[2],even higher apoptosis
same,Toxic effects in weight and internal organs' appearance,[3]; IP 40 mg/kg,some minor toxic effects
same,Toxicity at the injection site,[3]; intravenous administration,some signs of local toxicity in the tail
